Patent US20170333522A1, “EXPRESSION AND FUNCTION OF GPR64/ADGRG2 IN ENDOCRINE SYSTEMS AND METHODS TO TARGET IT THERAPEUTICALLY” (priority 2016, published 2017)

How the values were obtained:
[1] = test system: human parathyroid adenoma cells; experiment: PTH secretion from freshly dispersed human parathyroid adenoma cells (intact PTH ELISA); type: cell-based; conditions: 30 min
Experimental: Dispersed primary human parathyroid cells were rested for 1 hr at 37° C. in keratinocyte-SFM media (Thermo Fisher Scientific#37010-022) supplemented with the manufacturer's provided media supplements, antibiotics and 1.25 mM Ca^2+. Cells were then centrifuged and transferred to KSFM media with various concentrations of Ca^2+, P-15 peptide, forskolin and volumetric equivalent of DMSO for 30 min at 37° C. Supernatants were collected by centrifugation at 10,000 rpm, 5 min at 4° C. and were stored in −80 for determination of intact PTH.
Human intact PTH (1-84) in cell supernatants was measured in a colorimetric ELISA assay (Immutopics International #60-3000).

HEK-CaSR cells = experiment: cAMP accumulation assay in HEK-CaSR cells; type: cell-based, human; conditions: activation of CaSR by 3 mM Ca^2+, forskolin-stimulated cells
[2] = test system: tumor cells from tertiary hyperparathyroidism; experiment: PTH secretion from isolated tumor cells of tertiary hyperparathyroidism glands; type: cell-based, human
Experimental: (§1) FIG. 14A. Tertiary hyperparathyroidism following kidney transplantation. […] Isolated tumor cells from tertiary hyperparathyroidism gland A were stimulated with calcium (CaSR agonist) and P-15 peptide (GPR64 agonist) in vitro and PTH secretion was measured.
as §1, with “14B.” for “14A.”, “C” for “A”, “measured. Cells express very high levels of GPR64 and are unresponsive to calcium-mediated suppression of PTH secretion.” for “measured.”

[3] = test system: P-15-induced CRE induction; experiment: P-15-induced CRE induction in GPR64-transfected HEK cells after preincubation with kinase inhibitors; type: cell-based, human; conditions: 1 hr preincubation (H-89 20 μM, U0126 10 μM) before 100 μM P-15 for 5 hrs
Experimental: FIG. 7. HEK cells were transfected with pCRE-Luc and GPR64 and were preincubated with DMSO (vehicle), H-89 (PKA inhibitor, 20 μM) or U0126 (MEK inhibitor, 10 μM) for 1 hr before stimulation with either DMSO or 100 μM P-15 peptide for 5 hrs. Luciferase assay data are normalized to vehicle-preincubated, DMSO stimulated cells. Data are mean±SD from 3 independent experiments conducted in triplicates. *: P<0.05, **: P<0.01.
HEK cells were seeded in white opaque 96-well plates (30,000 cell/well) and were transfected with pCRE-Luc (100 ng/well) along with different doses of empty or GPR64-expressing plasmids. Cell were either left untreated or stimulated with different concentrations of P-15 peptide for 5 hrs at 37° C. Luminescence was measured in a FLEXStationIII plate reader (Molecular Devices).

GPR64ΔNTF [4] = target: T1, GPR64ΔNTF (Homo sapiens, UniProt Q8IZP9); experiment: CRE reporter gene assay (pCRE-Luc) in HEK cells transfected with GPR64ΔNTF; type: cell-based; conditions: increasing concentrations of P-15, 5 hrs
T1 construct: The human GPR64 variant 1 (full length with 1017 amino acids); expressed in transfected cells; host or cells: AD-293 (HEK) cells, transient transfection with pcDNA3.1-GPR64ΔNTF
T1 sequence (Q8IZP9 607-1017 limits assumed, stated change not applied): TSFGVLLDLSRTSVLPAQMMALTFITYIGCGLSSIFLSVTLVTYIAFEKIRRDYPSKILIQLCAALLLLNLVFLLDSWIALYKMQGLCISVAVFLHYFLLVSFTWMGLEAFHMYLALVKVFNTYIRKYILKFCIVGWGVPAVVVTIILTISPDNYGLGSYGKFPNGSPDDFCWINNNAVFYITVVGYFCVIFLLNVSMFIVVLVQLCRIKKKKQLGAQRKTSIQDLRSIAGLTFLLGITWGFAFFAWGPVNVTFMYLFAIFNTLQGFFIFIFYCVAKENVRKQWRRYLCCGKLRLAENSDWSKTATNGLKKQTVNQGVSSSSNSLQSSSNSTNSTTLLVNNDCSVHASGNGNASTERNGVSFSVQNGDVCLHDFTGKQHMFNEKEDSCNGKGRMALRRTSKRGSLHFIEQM
Experimental: (§2) FIG. 2. (A) HEK cells were transfected with pCRE-Luc in combination with 200 ng of pcDNA3.1, GPR64 or GPR64ΔNTF plasmids and were stimulated with increasing concentrations of 15 amino acid-long human GPR64 peptide (P-15) for 5 hrs. Luciferase activity (CRE induction) was measured and data were normalized to the values of cells transfected with pcDNA3.1. Data are mean±SD from 3-4 independent experiments conducted in triplicates. (B) Forty eight hrs post-transfection with pcDNA3.1, GPR64 or GPR64ΔNTF plasmids, HEK cells were stimulated with DMSO (vehicle) or 100 μM P-15 peptide for 30 min and cAMP accumulation was measured in an ELISA assay at 405 nm. […] (C) Freshly isolated human adenoma parathyroid cells were stimulated with increasing concentrations of Ca^2+ and P-15 or DMSO (vehicle) for 30 min and the concentration of secreted intact PTH was measured by ELISA. […] (D) Freshly isolated human adenoma parathyroid cells were stimulated with increasing concentrations of Ca^2+ and forskolin (FSK, 3 and 5 μM) or DMSO (vehicle) for 30 min and the concentration of secreted intact PTH was measured by ELISA. […]
(§3) HEK cells were seeded in white opaque 96-well plates (30,000 cell/well) and were transfected with pCRE-Luc (100 ng/well) along with different doses of empty or GPR64-expressing plasmids. […] Luminescence was measured in a FLEXStationIII plate reader (Molecular Devices).

GPR64ΔNTF [5] = target: T1, GPR64ΔNTF; experiment: cAMP accumulation assay in HEK-CaSR cells transfected with GPR64ΔNTF; type: cell-based; conditions: concomitant 3 mM Ca^2+ and 100 μM P-15
GPR64 [6] = target: T2, GPR64 (Homo sapiens, UniProt Q8IZP9); experiment: CRE reporter gene assay (pCRE-Luc) in HEK cells transfected with GPR64; type: cell-based; design: The human GPR64 variant 1 (full length with 1017 amino acids); expressed in transfected cells; host or cells: AD-293 (HEK) cells, transient transfection with pcDNA3.1-GPR64; conditions: increasing concentrations of P-15, 5 hrs
T2 sequence (Q8IZP9 38-1017): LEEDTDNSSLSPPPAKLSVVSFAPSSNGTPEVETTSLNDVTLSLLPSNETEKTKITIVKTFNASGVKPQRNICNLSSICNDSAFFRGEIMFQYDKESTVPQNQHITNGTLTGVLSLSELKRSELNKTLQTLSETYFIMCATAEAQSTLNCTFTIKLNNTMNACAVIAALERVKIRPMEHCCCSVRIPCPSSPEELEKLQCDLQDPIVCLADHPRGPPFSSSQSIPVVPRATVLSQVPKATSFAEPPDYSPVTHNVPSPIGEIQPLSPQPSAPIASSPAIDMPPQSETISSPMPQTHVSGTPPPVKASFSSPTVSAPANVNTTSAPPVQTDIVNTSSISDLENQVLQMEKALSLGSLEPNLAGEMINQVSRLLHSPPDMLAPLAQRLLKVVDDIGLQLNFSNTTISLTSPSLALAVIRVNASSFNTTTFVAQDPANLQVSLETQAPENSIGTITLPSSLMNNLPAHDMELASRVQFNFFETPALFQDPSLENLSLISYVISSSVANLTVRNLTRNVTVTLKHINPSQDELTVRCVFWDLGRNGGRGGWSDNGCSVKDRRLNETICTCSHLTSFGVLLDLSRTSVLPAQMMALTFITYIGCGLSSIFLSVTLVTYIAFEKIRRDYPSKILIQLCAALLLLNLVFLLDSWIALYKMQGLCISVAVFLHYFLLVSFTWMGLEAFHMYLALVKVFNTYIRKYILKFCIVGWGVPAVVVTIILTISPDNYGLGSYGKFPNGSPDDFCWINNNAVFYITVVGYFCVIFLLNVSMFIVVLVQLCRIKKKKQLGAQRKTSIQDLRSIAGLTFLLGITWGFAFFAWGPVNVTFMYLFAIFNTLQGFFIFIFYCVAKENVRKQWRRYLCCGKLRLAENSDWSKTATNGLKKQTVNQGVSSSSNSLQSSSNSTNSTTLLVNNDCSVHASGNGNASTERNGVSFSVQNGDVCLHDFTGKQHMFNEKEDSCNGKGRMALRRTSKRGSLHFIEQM
Experimental: as §2, §3

GPR64 [7] = target: T2, GPR64; experiment: cAMP accumulation assay (ELISA) in HEK cells transfected with GPR64; type: cell-based; design: The human GPR64 variant 1 (full length with 1017 amino acids); expressed in transfected cells; host or cells: AD-293 (HEK) cells, transient transfection with pcDNA3.1-GPR64; conditions: 100 μM P-15, 30 min, 48 hrs post-transfection
Experimental: FIG. 2. (A) HEK cells were transfected with pCRE-Luc in combination with 200 ng of pcDNA3.1, GPR64 or GPR64ΔNTF plasmids and were stimulated with increasing concentrations of 15 amino acid-long human GPR64 peptide (P-15) for 5 hrs. Luciferase activity (CRE induction) was measured and data were normalized to the values of cells transfected with pcDNA3.1. Data are mean±SD from 3-4 independent experiments conducted in triplicates. (B) Forty eight hrs post-transfection with pcDNA3.1, GPR64 or GPR64ΔNTF plasmids, HEK cells were stimulated with DMSO (vehicle) or 100 μM P-15 peptide for 30 min and cAMP accumulation was measured in an ELISA assay at 405 nm. Data were corrected to the protein concentration in samples. Data are mean±SD from 3 independent experiments conducted in triplicates. *: P<0.05, ****: P<0.0001. (C) Freshly isolated human adenoma parathyroid cells were stimulated with increasing concentrations of Ca^2+ and P-15 or DMSO (vehicle) for 30 min and the concentration of secreted intact PTH was measured by ELISA. Data were normalized to the PTH secretion in vehicle-treated cells cultured in 0.5 mM Ca^2+. […] (D) Freshly isolated human adenoma parathyroid cells were stimulated with increasing concentrations of Ca^2+ and forskolin (FSK, 3 and 5 μM) or DMSO (vehicle) for 30 min and the concentration of secreted intact PTH was measured by ELISA. […]

GPR64 [8] = target: T2, GPR64; experiment: cAMP accumulation assay in HEK-CaSR cells transfected with GPR64; type: cell-based; design: The human GPR64 variant 1 (full length with 1017 amino acids); expressed in transfected cells; host or cells: HEK-CaSR cells (AD-293 clone stably expressing FLAG-tagged human CaSR), transient transfection with pcDNA3.1-GPR64; conditions: 100 μM P-15, 30 min, 1.25 or 3 mM Ca^2+

Compound: [Ca+2].[Cl-].[Cl-] [Calcium, Calcium chloride, reference compound]
- PTH secretion ([1]; increasing concentrations of Ca^2+): suppressed PTH secretion in a dose-dependent manner
- cAMP level (HEK-CaSR cells): suppressed cAMP levels significantly
- calcium-mediated suppression of PTH secretion ([2]; tertiary hyperparathyroidism gland C, cells express very high levels of GPR64): unresponsive

Compound: O=S(=O)(NCCNC/C=C/c1ccc(Br)cc1)c1cccc2cnccc12 [H-89]
- effect on P-15-induced CRE induction [3]: blunted the P-15-induced CRE induction

Compound: N#CC(=C(/N)Sc1ccccc1N)/C(C#N)=C(\N)Sc1ccccc1N [U0126]
- effect on P-15-induced CRE induction [3]: did not inhibit CRE induction

Compound: TSFGVLLDLSRTSVL [P-15, GPR64 agonist]
- CRE induction (luciferase activity) (GPR64ΔNTF [4]): concentration-dependent CRE induction
- PTH secretion ([1]; P-15 with various concentrations of Ca^2+): elevated the PTH secretion
- intracellular cAMP (GPR64ΔNTF [5]): restored the intracellular cAMP to the level of cells activated only with P-15 in normocalcemic conditions
- PTH secretion ([2]; tertiary hyperparathyroidism gland A, calcium plus P-15 in vitro): higher PTH secretion
- CRE induction (luciferase activity) (GPR64 [6]; GPR64-transfected HEK cells): concentration-dependent CRE induction
- CRE induction (luciferase activity) (GPR64 [6]; control cells (pcDNA3.1-transfected HEK)): absent
- cAMP production (GPR64 [7]): specifically activates GPR64 to produce cAMP
- cAMP production (GPR64 [8]): increased cAMP production irrespective of CaSR activation with 3 mM Ca^2+
